Experimental data reported in PubChem BioAssay AID330 (DTP/NCI, 2004).
Several values for one entry are separate records, joined by “and”; a condition that tells them apart may be missing. Equal entries are not always repeated. Inconclusive results and toxic doses are left out.

System: P388 leukemia ip, CD2F1 mice, survival T/C
Assay: NCI In Vivo Anticancer Drug Screen. Data for tumor model P388 Leukemia (intraperitoneal) in CD2F1 (CDF1) mice
Conditions: endpoint: median survival time, higher = longer survival
Method in brief: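 Mice carrying the transplanted tumor received test compound or vehicle. Survival was recorded in each group, and the value is the treated-group measurement divided by that of the vehicle-treated control group.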

[1] = dose: 100.0 mg/kg/injection, schedule: Q01DX001 (ip), vehicle: Klucel (hydroxypropylcellulose) (HPC)
[2] = dose: 200.0 mg/kg/injection, schedule: Q01DX001 (ip), vehicle: Klucel (hydroxypropylcellulose) (HPC)
[3] = dose: 12.5 mg/kg/injection, schedule: Q01DX005 (ip), vehicle: saline with Tween-80
[4] = dose: 50.0 mg/kg/injection, schedule: Q01DX005 (ip), vehicle: saline with Tween-80
[5] = dose: 6.25 mg/kg/injection, schedule: Q01DX009 (ip), vehicle: saline with Tween-80
[6] = dose: 12.5 mg/kg/injection, schedule: Q01DX009 (ip), vehicle: saline with Tween-80
[7] = dose: 25.0 mg/kg/injection, schedule: Q01DX009 (ip), vehicle: saline with Tween-80
[8] = dose: 60.0 mg/kg/injection, schedule: Q01DX005 (ip), vehicle: saline with Tween-80
[9] = dose: 120.0 mg/kg/injection, schedule: Q01DX005 (ip), vehicle: saline with Tween-80
[10] = dose: 240.0 mg/kg/injection, schedule: Q01DX005 (ip), vehicle: saline with Tween-80
[11] = dose: 200.0 mg/kg/injection, schedule: Q04DX003 (ip), vehicle: saline with Tween-80
[12] = dose: 400.0 mg/kg/injection, schedule: Q04DX003 (ip), vehicle: saline with Tween-80
[13] = dose: 100.0 mg/kg/injection, schedule: Q04DX003 (ip), vehicle: saline with Tween-80

NNc1nnnn1-c1ccccc1 was tested, and the T/C (dose: 50.0 mg/kg/injection, schedule: Q01DX001 (ip), vehicle: Klucel (hydroxypropylcellulose) (HPC)) was 100 % of control, the T/C [1] was 104 % of control and the T/C [2] was 102 % of control.
C=C1CCN(c2ccc(Br)cc2)C1=O was tested, and the T/C (dose: 4.0 mg/kg/injection, schedule: Q01DX009 (ip), vehicle: saline + alcohol) was 104 % of control, the T/C (dose: 8.0 mg/kg/injection, schedule: Q01DX009 (ip), vehicle: saline + alcohol) was 92 % of control and the T/C (dose: 16.0 mg/kg/injection, schedule: Q01DX009 (ip), vehicle: saline + alcohol) was 98 % of control. For the same molecule, the T/C (dose: 32.0 mg/kg/injection, schedule: Q01DX009 (ip), vehicle: saline + alcohol) was 91 % of control and the T/C (dose: 64.0 mg/kg/injection, schedule: Q01DX009 (ip), vehicle: saline + alcohol) was 98 % of control.
For CCO/C=C(\C#N)S(=O)(=O)/C(C#N)=C/OCC, the T/C (dose: 100.0 mg/kg/injection, schedule: Q04DX002 (ip), vehicle: saline) was 108 % of control and the T/C (dose: 200.0 mg/kg/injection, schedule: Q04DX002 (ip), vehicle: saline) was 101 % of control.
For O=C1C2CC(Cl)C(SSC3CC4C(=O)N(SC(Cl)(Cl)C(Cl)Cl)C(=O)C4CC3Cl)CC2C(=O)N1SC(Cl)(Cl)C(Cl)Cl (stereo unspecified), the T/C (dose: 6.25 mg/kg/injection, schedule: Q01DX005 (ip), vehicle: saline with Tween-80) was 108 % of control and 110 % of control, the T/C [3] was 101 % of control and 107 % of control and the T/C [4] was 115 % of control.
In the case of Cn1c(-c2ccccc2)nc2ccccc2c1=O, the T/C [5] is reported as 95 % of control, the T/C [6] is reported as 101 % of control and the T/C [7] is reported as 101 % of control.
For CNC(=O)OCc1c(COC(=O)NC)c2n(c1C)-c1ccccc1CCC2, the T/C (dose: 2.5 mg/kg/injection, schedule: Q01DX005 (ip), vehicle: Klucel (hydroxypropylcellulose) (HPC)) was 154 % of control and the T/C (dose: 10.0 mg/kg/injection, schedule: Q01DX005 (ip), vehicle: Klucel (hydroxypropylcellulose) (HPC)) was 152 % of control.
In the case of O=[N+]([O-])c1ccc(CS(=O)(=O)c2cccs2)o1, the T/C (dose: 50.0 mg/kg/injection, schedule: Q01DX009 (ip), vehicle: suspension in saline) is reported as 106 % of control and the T/C (dose: 100.0 mg/kg/injection, schedule: Q01DX009 (ip), vehicle: suspension in saline) is reported as 100 % of control.
With Nc1ccc(S(=O)(=O)NCCSSCCNS(=O)(=O)c2ccc(N)cc2)cc1 the T/C [8] was 97 % of control, the T/C [9] was 100 % of control and the T/C [10] was 105 % of control.
CCN(CC)CCC(O)(c1ccc2c(c1)OCO2)c1cc(OC)c(OC)c(OC)c1 (stereo unspecified) was tested, and the T/C (dose: 50.0 mg/kg/injection, schedule: Q01DX005 (ip), vehicle: Klucel (hydroxypropylcellulose) (HPC)) was 103 % of control and 93 % of control and 94 % of control and the T/C (dose: 200.0 mg/kg/injection, schedule: Q01DX005 (ip), vehicle: Klucel (hydroxypropylcellulose) (HPC)) was 101 % of control.
For Cc1ccc(-c2cn3ccsc3n2)cc1, the T/C [1] was 95 % of control and the T/C [2] was 97 % of control.
COc1cc(/C=N\NC(=O)c2cccc(Cl)c2)ccc1N(CCCl)CCCl was tested, and the T/C [11] was 163 % of control, the T/C (dose: 264.0 mg/kg/injection, schedule: Q04DX003 (ip), vehicle: saline with Tween-80) was 154 % of control and the T/C [12] was 172 % of control and 195 % of control. For the same molecule, the T/C (dose: 600.0 mg/kg/injection, schedule: Q04DX003 (ip), vehicle: saline with Tween-80) was 154 % of control.
For Nc1ccc2ncccc2c1[N+](=O)[O-], the T/C [13] was 95 % of control and the T/C [11] was 94 % of control.
With Cc1coc2c1C1OC(=O)C3(C/C=C\C(C)C2)OC13 (stereo unspecified) the T/C (dose: 5625.0 micrograms/kg/injection, schedule: Q01DX005 (ip), vehicle: Klucel (hydroxypropylcellulose) (HPC)) was 100 % of control, the T/C (dose: 11250.0 micrograms/kg/injection, schedule: Q01DX005 (ip), vehicle: Klucel (hydroxypropylcellulose) (HPC)) was 100 % of control and the T/C (dose: 22500.0 micrograms/kg/injection, schedule: Q01DX005 (ip), vehicle: Klucel (hydroxypropylcellulose) (HPC)) was 100 % of control.
In the case of NC(N)=N/N=C1\C(=O)N(c2cccc([N+](=O)[O-])c2)C(=O)C1C(=O)Nc1cccc([N+](=O)[O-])c1 (stereo unspecified), the T/C (dose: 100.0 mg/kg/injection, schedule: Q01DX001 (ip), vehicle: saline with Tween-80) is reported as 102 % of control and the T/C (dose: 200.0 mg/kg/injection, schedule: Q01DX001 (ip), vehicle: saline with Tween-80) is reported as 100 % of control.
CCOC(=O)CN1CN(CCc2ccccc2)CC(C)(C)C1OCC (stereo unspecified) was tested, and the T/C (dose: 50.0 mg/kg/injection, schedule: Q01DX009 (ip), vehicle: saline with Tween-80) was 104 % of control, the T/C (dose: 100.0 mg/kg/injection, schedule: Q01DX009 (ip), vehicle: saline with Tween-80) was 101 % of control and the T/C (dose: 200.0 mg/kg/injection, schedule: Q01DX009 (ip), vehicle: saline with Tween-80) was 121 % of control. The T/C (dose: 400.0 mg/kg/injection, schedule: Q01DX009 (ip), vehicle: saline with Tween-80) was 112 % of control.
In the case of C[Si](C)(C)CN1CCCC1, the T/C (dose: 50.0 mg/kg/injection, schedule: Q01DX005 (ip), vehicle: saline) is reported as 108 % of control and the T/C (dose: 100.0 mg/kg/injection, schedule: Q01DX005 (ip), vehicle: saline) is reported as 101 % of control.
With COc1ccc(CC2C(=O)NC(C)C(=O)N(C)C3C(=O)N(C)C(Cc4ccc(O)c(c4)Oc4ccc(cc4)C3O)C(=O)NC(C)C(=O)NC(C)C(=O)N2C)cc1 (stereo unspecified) (tested in a mixture with another compound) the T/C (dose: 1.0 mg/kg/injection, schedule: Q01DX009 (ip), vehicle: Klucel (hydroxypropylcellulose) (HPC)) was 158 % of control, the T/C (dose: 2.0 mg/kg/injection, schedule: Q01DX009 (ip), vehicle: Klucel (hydroxypropylcellulose) (HPC)) was 158 % of control and the T/C (dose: 4.0 mg/kg/injection, schedule: Q01DX009 (ip), vehicle: Klucel (hydroxypropylcellulose) (HPC)) was 155 % of control. For the same molecule, the T/C (dose: 250.0 micrograms/kg/injection, schedule: Q01DX009 (ip), vehicle: saline) was 156 % of control, the T/C (dose: 500.0 micrograms/kg/injection, schedule: Q01DX009 (ip), vehicle: saline) was 152 % of control and the T/C (dose: 1000.0 micrograms/kg/injection, schedule: Q01DX009 (ip), vehicle: saline) was 158 % of control.
With COC1OCC2(C)OC(c3ccccc3)=NC2C1O (stereo unspecified) the T/C (dose: 100.0 mg/kg/injection, schedule: Q04DX002 (ip), vehicle: Klucel (hydroxypropylcellulose) (HPC)) was 90 % of control and the T/C (dose: 200.0 mg/kg/injection, schedule: Q04DX002 (ip), vehicle: Klucel (hydroxypropylcellulose) (HPC)) was 100 % of control.
CC(=O)Nc1cc(NC(C)=O)cc(N(CCCl)CCCl)c1 was tested, and the T/C (dose: 3.13 mg/kg/injection, schedule: Q01DX009 (ip), vehicle: water) was 118 % of control, the T/C (dose: 12.5 mg/kg/injection, schedule: Q01DX009 (ip), vehicle: water) was 151 % of control and the T/C (dose: 16.5 mg/kg/injection, schedule: Q01DX009 (ip), vehicle: water) was 162 % of control. For the same molecule, the T/C (dose: 25.0 mg/kg/injection, schedule: Q01DX009 (ip), vehicle: water) was 154 % of control and 169 % of control and 196 % of control and the T/C (dose: 37.5 mg/kg/injection, schedule: Q01DX009 (ip), vehicle: water) was 122 % of control.
With O=S1(=O)OCCO1 the T/C (dose: 12.5 mg/kg/injection, schedule: Q01DX005 (ip), vehicle: saline) was 106 % of control and the T/C (dose: 25.0 mg/kg/injection, schedule: Q01DX005 (ip), vehicle: saline) was 108 % of control.
O=C(/C=C/c1ccccc1)c1ccc(O)cc1 was tested, and the T/C [5] was 103 % of control, the T/C [6] was 109 % of control and the T/C [7] was 110 % of control. For the same molecule, the T/C (dose: 50.0 mg/kg/injection, schedule: Q04DX003 (ip), vehicle: saline with Tween-80) was 98 % of control, the T/C [13] was 98 % of control and the T/C [12] was 114 % of control.
In the case of CC(C)(C)OC(=O)NC(CCCCNC(=O)OCc1ccccc1)C(=O)NC(CCCCNC(=O)OCc1ccccc1)C(=O)NC(CCCCNC(=O)OCc1ccccc1)C(=O)OCc1ccccc1 (stereo unspecified), the T/C [3] is reported as 100 % of control, the T/C (dose: 25.0 mg/kg/injection, schedule: Q01DX005 (ip), vehicle: saline with Tween-80) is reported as 97 % of control and the T/C [4] is reported as 100 % of control.
For CC(=O)N/C(=C\c1ccc([N+](=O)[O-])cc1)c1nc2ccccc2s1, the T/C [8] was 110 % of control, the T/C [9] was 107 % of control and the T/C [10] was 113 % of control.
